One may read the Ki as a dissociation constant, usually derived from enzyme kinetics or from competition with a known ligand.

In ChEMBL document CHEMBL2074489, “Human organic anion transporter 3 (hOAT3) can operate as an exchanger and mediate secretory urate flux” (Cell Physiol Biochem, 2003) one finds Activity and Ki data, which are given here for five compounds.

In data set [1] the target is T1, Organic anion transporter 3 (Homo sapiens, UniProt Q8TCC7).
T1 sequence (Q8TCC7 whole entry): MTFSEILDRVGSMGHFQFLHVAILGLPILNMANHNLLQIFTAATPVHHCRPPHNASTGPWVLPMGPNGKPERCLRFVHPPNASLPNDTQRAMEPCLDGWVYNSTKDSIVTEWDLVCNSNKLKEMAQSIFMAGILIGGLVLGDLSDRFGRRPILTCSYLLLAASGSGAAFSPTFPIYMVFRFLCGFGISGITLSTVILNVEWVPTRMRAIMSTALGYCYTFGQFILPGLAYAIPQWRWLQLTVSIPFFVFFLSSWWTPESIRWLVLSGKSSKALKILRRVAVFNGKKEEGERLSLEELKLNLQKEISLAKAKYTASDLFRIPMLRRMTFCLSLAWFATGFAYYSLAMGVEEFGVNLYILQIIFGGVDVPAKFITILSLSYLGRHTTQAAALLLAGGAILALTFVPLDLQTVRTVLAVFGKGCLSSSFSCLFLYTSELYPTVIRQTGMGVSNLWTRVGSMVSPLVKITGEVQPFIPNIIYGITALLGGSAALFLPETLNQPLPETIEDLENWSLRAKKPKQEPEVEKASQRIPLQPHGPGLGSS
In words: TP_TRANSPORTER: trans-stimulation in Xenopus laevis oocytes. Particulars: oocyte. The data set is classed as functional, cell-based.

The target of data set [2] is T1, Organic anion transporter 3. Put plainly: TP_TRANSPORTER: inhibition of Estrone sulfate in Xenopus laevis oocytes. In kind it is functional, cell-based, Oocyte.

With `O=c1[nH]c(=O)c2[nH]c(=O)[nH]c2[nH]1` [URIC ACID], the Activity result in data set [1] is “substrate []”. In data set [2], this compound gave a Ki of 275 µM.
`CN/C(=N/CCSCc1nc[nH]c1C)NC#N` [CIMETIDINE]: the Activity result in data set [1] was “substrate []”.
Turning to `Nc1ccc(C(=O)NCC(=O)O)cc1` [AMINOHIPPURIC ACID], the Activity entry in data set [1] was “substrate []”.
On the same count and under the same terms, next, `O=C(O)CCCC(=O)O` [GLUTARATE]: “substrate []”; `O=C(O)CCC(=O)C(=O)O` [ALPHA-KETOGLUTARIC ACID]: “substrate []”.
